According to US8859608B2, “Spiro amino compounds suitable for the treatment of inter alia sleep disorders and drug addiction” (Rottapharm Biotech S.R.L., priority 2009, dated 2014):
Read-outs that look alike come from different tables or passages of the source.

Assays:
[1] = Pharmacokinetics in male Han Wistar rats, intravenous and oral; assay type: in vivo; conditions: 1 mg/kg
Method: (§1) The pharmacokinetics of compound 4 were studied in male Han Wistar rats. The rats were treated intravenously and orally (n=3 for each dose route) with a compound 2 solution at the dose of 1 mg/kg, formulated in Lactic acid 150 mM pH 4.5 in water, 5% DMSO, 10% TWEEN 80. The rats were fitted with a jugular cannula for serial sampling, a full profile was acquired for each rat. Another group of rats (n=3) was treated intravenously and sacrificed after 1 hour harvesting arterial blood and brain to assess brain penetration. Plasma and brain extracts were quantitatively analyzed using a specific and sensitive LC-MS/MS bioanalytical method. Inter-individual variations between the three rats in each group were limited (CV for pharmacokinetic parameters was below 30%).

[2] = Brain penetration in rats 1 hour after intravenous treatment; assay type: in vivo; conditions: male, Han Wistar, rat, one hour after intravenous administration, 1 mg/kg
Method: as §1

human OX1 receptor = target: T1, human OX1 receptor (Homo sapiens, UniProt O43613); experiment: FLIPR measurement of intracellular calcium, antagonistic activity at OX1; conditions: for Kb: pKb OX1, CHO cells with human recombinant OX1, activated with orexin-A 3 nM, 1 nM-1 μM range, modified Cheng Prusoff
T1 sequence (O43613 1-425): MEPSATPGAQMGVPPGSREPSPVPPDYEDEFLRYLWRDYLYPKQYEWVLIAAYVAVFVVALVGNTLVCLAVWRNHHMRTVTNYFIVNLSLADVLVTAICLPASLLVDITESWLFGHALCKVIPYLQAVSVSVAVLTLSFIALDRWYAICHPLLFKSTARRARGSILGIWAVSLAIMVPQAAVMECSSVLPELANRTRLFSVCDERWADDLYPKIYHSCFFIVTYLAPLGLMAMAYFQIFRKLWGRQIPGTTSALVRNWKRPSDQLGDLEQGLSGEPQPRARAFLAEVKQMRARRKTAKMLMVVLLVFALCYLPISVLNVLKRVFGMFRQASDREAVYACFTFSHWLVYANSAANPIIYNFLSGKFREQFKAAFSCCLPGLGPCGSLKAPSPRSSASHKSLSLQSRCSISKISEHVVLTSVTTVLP
Method: (§2) Thus the plate was loaded with the calcium dye (Fluo-4NW/probenecid in HBSS, Hepes 20 mM, pH 7,4; Invitrogen) at 37° C. for 60 min. Afterward the temperature was equilibrated at 22° C. for 15 min and the [Ca2+]i measured directly on the plate by using a fluorescent plate reader (CeliLux Perkin Elmer).
(§3) After 5 min CHO cells were activated with orexin-A, 3 nM while HEK-293 cells were activated with orexin-B, 10 nM.
(§4) The antagonistic activity has been expressed as pKb (co-logarithm of the apparent dissociation constant calculated by using the modified Cheng Prusoff equation).

human OX2 receptor = target: T2, human OX2 receptor (Homo sapiens, UniProt O43614); experiment: FLIPR measurement of intracellular calcium, antagonistic activity at OX2
T2 sequence (O43614 1-444): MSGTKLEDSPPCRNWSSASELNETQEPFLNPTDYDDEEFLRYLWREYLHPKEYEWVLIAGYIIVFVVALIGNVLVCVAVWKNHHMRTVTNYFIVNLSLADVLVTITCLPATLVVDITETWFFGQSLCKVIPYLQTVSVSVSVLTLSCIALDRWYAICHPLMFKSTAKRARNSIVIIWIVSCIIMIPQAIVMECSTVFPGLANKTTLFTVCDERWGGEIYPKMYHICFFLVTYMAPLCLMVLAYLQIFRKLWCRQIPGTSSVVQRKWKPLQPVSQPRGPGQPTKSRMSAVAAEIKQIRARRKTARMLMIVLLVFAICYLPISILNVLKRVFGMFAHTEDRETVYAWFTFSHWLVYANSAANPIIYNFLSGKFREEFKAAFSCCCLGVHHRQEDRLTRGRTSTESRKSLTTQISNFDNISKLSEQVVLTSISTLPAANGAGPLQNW
Method: as §2, §3, §4

[3] = male, Han Wistar, plasma, rat, intravenous

SMILES | Kb (human OX1 receptor) | Kb (human OX2 receptor) | other results
Cc1cccc(NCC2CC3(CCN2C(=O)c2nc(C)sc2-c2ccccc2)CC3)n1 (single isomer, unassigned) [Compound 2, (2-methyl-5-phenylthiazol-4-yl)(5-((6-methylpyridin-2-ylamino)methyl)-6-azaspiro[2.5]octan-6-yl)methanone] | 6.31 nM | > 10000 nM | clearance as share of rat liver blood flow ([1]; intravenous): 40%; AUC [1, 3]: ~740 ng·h/mL; clearance [1, 3]: ~5.33 mL/min; Vd ([1]; male, Han Wistar, plasma, rat, intravenous, read-out: average volume of distribution (Vss)): 0.33 L; bioavailability ([1]; male, Han Wistar, plasma, rat, oral solution, read-out: absolute oral bioavailability): 50%; AUC ([1]; male, Han Wistar, plasma, rat, oral): ~360 ng·h/mL; oral AUC as share of AUC after intravenous administration ([1]; rat): about 50%; time of maximum concentration ([1]; rat, oral): ≤ 30 min; concentration at 1 h ([2]; arterial plasma, read-out: average arterial plasmatic level): 126 ng/mL; Kp at 1 h ([2]; brain/plasma, read-out: Brain/plasma concentrations ratio): 0.66; concentration at 1 h ([2]; brain, read-out: average total brain level): 83 ng/g; selectivity against the OX1 receptor (human OX1 receptor; OX1 versus OX2, from the pKb table): highly selective
Cc1nc(C(=O)N2CCC3(CC3)C[C@H]2CNc2cccc(C(F)(F)F)n2)c(-c2ccccc2)s1 [Compound 18, (S)-(2-methyl-5-phenylthiazol-4-yl)(5-(((6-(trifluoromethyl)pyridin-2-yl)amino)methyl)-6-azaspiro[2.5]octan-6-yl)methanone] | 50.1 nM | > 10000 nM | –
Cc1cc(C)nc(NC[C@@H]2CC3(CCN2C(=O)c2nc(C)sc2-c2ccccc2)CC3)n1 [Compound 22, (S)-(5-(((4,6-dimethylpyrimidin-2-yl)amino)methyl)-6-azaspiro[2.5]octan-6-yl)(2-methyl-5-phenylthiazol-4-yl)methanone] | 20 nM | > 10000 nM | –
Cc1cc(C)nc(NC[C@@H]2CC3(CCN2C(=O)c2ccccc2-c2ccccc2)CC3)n1 [Compound 35, (S)-[1,1′-biphenyl]-2-yl(5-(((4,6-dimethylpyrimidin-2-yl)amino)methyl)-6-azaspiro[2.5]octan-6-yl)methanone] | 5.01 nM | 79.4 nM | –
Cc1ccnc(NC[C@@H]2CC3(CCN2C(=O)c2ccccc2-c2ccccc2)CC3)n1 [Compound 39, (S)-[1,1′-biphenyl]-2-yl(5-(((4-methylpyrimidin-2-yl)amino)methyl)-6-azaspiro[2.5]octan-6-yl)methanone] | 12.6 nM | > 10000 nM | –
Cc1ccc(-n2nccn2)c(C(=O)N2CC3(CC3)C[C@H]2CNc2ccc(Cl)cn2)c1 [Compound 49, (S)-(6-(((5-chloropyridin-2-yl)amino)methyl)-5-azaspiro[2.4]heptan-5-yl)(5-methyl-2-(2H-1,2,3-triazol-2-yl)phenyl)methanone] | 7.94 nM | > 10000 nM | –
Cc1ccc(-n2nccn2)c(C(=O)N2CC3(CC3)C[C@H]2CNc2cccc(C)n2)c1 [Compound 50, (S)-(5-methyl-2-(2H-1,2,3-triazol-2-yl)phenyl)(6-(((6-methylpyridin-2-yl)amino)methyl)-5-azaspiro[2.4]heptan-5-yl)methanone] | 79.4 nM | > 10000 nM | –
Cc1ccc(-c2ncccn2)c(C(=O)N2CC3(CC3)C[C@H]2CNc2ccc(Cl)cn2)c1 [Compound 51, (S)-(6-(((5-chloropyridin-2-yl)amino)methyl)-5-azaspiro[2.4]heptan-5-yl)(5-methyl-2-(pyrimidin-2-yl)phenyl)methanone] | 6.31 nM | > 10000 nM | –
Cc1cccc(NCC2CCCCN2C(=O)c2ccccc2-c2ccccc2)n1 (centres unmarked) [comparison 1, reference compound] | 126 nM | 31.6 nM | –

Further lines, with some results ahead:

Kb (human OX1 receptor) | Kb (human OX2 receptor) | SMILES | other results
10 nM | 25.1 nM | Cc1nc(C(=O)N2CCCCC2CNc2ccc(Cl)cn2)c(-c2ccccc2)s1 (centres unmarked) [comparison 2, reference compound] | –
1 nM | 3.16 nM | Cc1cccc(NCC2CCCCN2C(=O)c2nc(C)sc2-c2ccccc2)n1 (centres unmarked) [comparison 3, reference compound] | –
3.16 nM | 158 nM | O=C(c1ccccc1OCC1CC1)N1CCCCC1CNc1ccc(Cl)cn1 (centres unmarked) [comparison 4, reference compound] | –
3.16 nM | 3.98 nM | Cc1cccc(NCC2CCCCN2C(=O)c2nc(C)sc2-c2ccc(F)cc2)n1 (centres unmarked) [comparison 5, reference compound] | –
